# Experimental data published in patent US7511061B2, “Triazoles as farnesyl transferase inhibitors” (Janssen Pharmaceutica N.V., priority 1999, dated 2009).
# Biological target: farnesyl protein transferase (FPTase) (Homo sapiens, UniProt P49354+P49356)
# Experiment: In vitro assay for inhibition of farnesyl protein transferase
# Assay type: biochemical
# Settings: test dose of 10^−7 M
# Protocol: An in vitro assay for inhibition of farnesyl transferase was performed essentially as described in WO 98/40383, pages 33-34.
row,inhibition at 0.1 µM [%],Structure (SMILES)
1,≥ 10,N#Cc1ccc(Cn2cnnc2CN(Cc2ccc(F)cc2F)C(=O)c2ccc(-c3ccc(F)c(Cl)c3)o2)cc1 [compound 272]
2,≥ 10,N#Cc1ccc(Cn2cnnc2CN(Cc2ccc(F)cc2F)C(=O)c2ccc(-c3ccc(F)cc3)o2)cc1 [compound 274]
3,≥ 10,Cc1cc(C(=O)N(Cc2ccc(F)cc2F)Cc2nncn2Cc2ccc(C#N)cc2)ccc1Br [compound 277]
4,≥ 10,N#Cc1ccc(Cn2cnnc2CN(Cc2ccc(F)cc2F)C(=O)c2cccc(-c3ccsc3)n2)cc1 [compound 278]
5,≥ 10,N#Cc1ccc(Cn2cnnc2CN(Cc2ccc(F)cc2F)C(=O)c2cccc(Cl)n2)cc1 [compound 279]
6,≥ 10,N#Cc1ccc(Cn2cnnc2CN(Cc2ccc(F)cc2F)C(=O)c2ccc(-c3ccccc3C(F)(F)F)o2)cc1 [compound 281]
7,≥ 10,N#Cc1ccc(Cn2cnnc2CN(Cc2ccc(F)cc2F)C(=O)c2cccc(-c3cc(Cl)cc(Cl)c3)c2)cc1 [compound 283]
8,≥ 10,N#Cc1ccc(Cn2cnnc2CN(Cc2ccc(F)cc2F)C(=O)c2cccc(Br)n2)cc1 [compound 285]
9,≥ 10,Cc1ccc(C(=O)N(Cc2ccc(F)cc2F)Cc2nncn2Cc2ccc(C#N)cc2)cc1-c1ccsc1 [compound 288]
10,≥ 10,N#Cc1ccc(Cn2cnnc2CN(Cc2ccc(F)cc2F)C(=O)C2=Cc3ccccc3OC2)cc1 [compound 289]
11,≥ 10,N#Cc1ccc(Cn2cnnc2CN(Cc2ccc(F)cc2F)C(=O)c2ccc(-c3cccc(C(F)(F)F)c3)o2)cc1 [compound 292]
12,≥ 10,N#Cc1ccc(Cn2cnnc2CN(Cc2ccc(F)cc2F)C(=O)c2ccc(OC(F)(F)F)c(Cl)c2)cc1 [compound 293]
13,≥ 10,N#Cc1ccc(Cn2cnnc2CN(Cc2ccc(F)cc2F)C(=O)c2ccc(-c3cc(Cl)cc(Cl)c3)o2)cc1 [compound 296]
14,≥ 10,COc1cc(C(=O)N(Cc2ccc(F)cc2F)Cc2nncn2Cc2ccc(C#N)cc2)nc2ccccc12 [compound 298]
15,≥ 10,N#Cc1ccc(Cn2cnnc2CN(Cc2ccc(F)cc2F)C(=O)c2cc3ccccc3o2)cc1 [compound 299]
16,≥ 10,N#Cc1ccc(Cn2cnnc2CN(Cc2ccc(F)cc2F)C(=O)c2ccc3ccccc3n2)cc1 [compound 300]
17,≥ 10,Cc1ccc(C(=O)N(Cc2ccc(F)cc2F)Cc2nncn2Cc2ccc(C#N)cc2)cc1-c1cc(Cl)cc(Cl)c1 [compound 308]
18,≥ 10,Cc1ccc(C(=O)N(Cc2ccc(F)cc2F)Cc2nncn2Cc2ccc(C#N)cc2)cc1Br [compound 309]
19,≥ 10,Cc1ccc(Br)cc1C(=O)N(Cc1ccc(F)cc1F)Cc1nncn1Cc1ccc(C#N)cc1 [compound 314]
20,≥ 10,N#Cc1ccc(Cn2cnnc2CN(Cc2ccc(F)cc2F)C(=O)c2ccc3ccccc3c2)cc1 [compound 315]

# The next lines start with the molecule.
row,Structure (SMILES),inhibition at 0.1 µM [%]
1,O=C(c1ccc2ccccc2n1)N(Cc1ccc(F)cc1F)Cc1nncn1Cc1ccc([N+](=O)[O-])cc1 [compound 273],≥ 10
2,N#Cc1ccc(Cn2cnnc2CN(Cc2cccc(Cl)c2)C(=O)c2ccc3ccccc3n2)cc1 [compound 275],≥ 10
3,N#Cc1ccc(Cn2cnnc2CN(CCc2ccc(F)cc2)C(=O)c2ccc3ccccc3n2)cc1 [compound 276],≥ 10
4,N#Cc1ccc(Cn2cnnc2CN(Cc2ccccc2OC(F)(F)F)C(=O)c2ccc3ccccc3n2)cc1 [compound 280],≥ 10
5,C/C(=C\c1ccccc1)C(=O)N(Cc1ccc(F)cc1F)Cc1nncn1Cc1ccc(C#N)cc1 [compound 282],≥ 10
6,N#Cc1ccc(Cn2cnnc2CN(Cc2ccc(Cl)cc2Cl)C(=O)c2ccc3ccccc3n2)cc1 [compound 284],≥ 10
7,N#Cc1ccc(Cn2cnnc2CN(Cc2ccc(Cl)c(Cl)c2)C(=O)c2ccc3ccccc3n2)cc1 [compound 286],≥ 10
8,COc1cc(Cn2cnnc2CN(Cc2ccc(F)cc2F)C(=O)c2ccc3ccccc3n2)ccc1[N+](=O)[O-] [compound 290],≥ 10
9,N#Cc1ccc(Cn2cnnc2CN(Cc2ccc(F)cc2F)C(=O)c2cc(Br)cc3c2OCC3)cc1 [compound 291],≥ 10
10,N#Cc1ccc(Cn2cnnc2CN(Cc2ccccc2Cl)C(=O)c2ccc3ccccc3n2)cc1 [compound 294],≥ 10
11,N#Cc1ccc(Cn2cnnc2CN(Cc2ccc(F)cc2F)C(=O)c2ccc3ccccc3n2)nc1 [compound 295],≥ 10
12,N#Cc1ccc(Cn2cnnc2CN(Cc2ccc(F)cc2)C(=O)c2ccc3ccccc3n2)cc1 [compound 297],≥ 10
13,N#Cc1ccc(Cn2cnnc2CN(Cc2ccc(F)cc2F)C(=O)c2nc3ccccc3nc2O)cc1 [compound 301],≥ 10
14,N#Cc1ccc(Cn2cnnc2CN(Cc2ccc(C(F)(F)F)cc2)C(=O)c2ccc3ccccc3n2)cc1 [compound 302],≥ 10
15,N#Cc1ccc(Cn2cnnc2CN(Cc2c(F)cccc2F)C(=O)c2ccc3ccccc3n2)cc1 [compound 303],≥ 10
16,N#Cc1ccc(Cn2cnnc2CN(Cc2ccc(Br)cc2)C(=O)c2ccc3ccccc3n2)cc1 [compound 304],≥ 10
17,N#Cc1ccc(Cn2cnnc2CN(Cc2cc(F)cc(F)c2)C(=O)c2ccc3ccccc3n2)cc1 [compound 305],≥ 10
18,N#Cc1ccc(Cn2cnnc2CN(Cc2ccccc2F)C(=O)c2ccc3ccccc3n2)cc1 [compound 306],≥ 10
19,N#Cc1ccc(Cn2cnnc2CN(Cc2cccc(F)c2F)C(=O)c2ccc3ccccc3n2)cc1 [compound 307],≥ 10
20,Cc1nnc(CN(Cc2ccc(F)cc2F)C(=O)c2ccc3ccccc3n2)n1Cc1ccc(C#N)cc1 [compound 311],≥ 10
21,Cc1nnc(CN(Cc2ccc(F)cc2F)C(=O)c2ccc3ccccc3n2)n1-c1ccc(C#N)cc1 [compound 313],≥ 10
